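Following 48 hours of exposure in 96-well plates, responses at five concentrations were used to interpolate endpoints linearly. Abbreviation: GI50, concentration required for 50% inhibition of growth. TGI denotes the concentration required for complete inhibition of growth.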
Assays:
Experiment in all cases: growth of human tumour cells (NCI), 48 h
UO-31 renal = tested on: UO-31 renal
HS 578T breast = tested on: HS 578T breast
UACC-257 melanoma = tested on: UACC-257 melanoma
HCT-116 colon = tested on: HCT-116 colon
SNB-19 CNS = tested on: SNB-19 CNS
SK-MEL-28 melanoma = tested on: SK-MEL-28 melanoma
NCI-H23 lung = tested on: NCI-H23 lung
M14 melanoma = tested on: M14 melanoma
K-562 leukemia = tested on: K-562 leukemia
SN12C renal = tested on: SN12C renal

| Compound | GI50 (UO-31 renal) [µM] | TGI (UO-31 renal) [µM] | GI50 (HS 578T breast) [µM] | TGI (HS 578T breast) [µM] | GI50 (UACC-257 melanoma) [µM] | TGI (UACC-257 melanoma) [µM] | GI50 (HCT-116 colon) [µM] | TGI (HCT-116 colon) [µM] | GI50 (SNB-19 CNS) [µM] | TGI (SNB-19 CNS) [µM] | GI50 (SK-MEL-28 melanoma) [µM] | TGI (SK-MEL-28 melanoma) [µM] | GI50 (NCI-H23 lung) [µM] | TGI (NCI-H23 lung) [µM] | GI50 (M14 melanoma) [µM] | TGI (M14 melanoma) [µM] | GI50 (K-562 leukemia) [µM] | TGI (K-562 leukemia) [µM] | GI50 (SN12C renal) [µM] | TGI (SN12C renal) [µM] |
| --- | --- | --- | --- | --- | --- | --- | --- | --- | --- | --- | --- | --- | --- | --- | --- | --- | --- | --- | --- | --- |
| O=C(Nc1ccc(Cl)cc1)Nc1ccc(Cl)c(Cl)c1 | 2.32 | 10.1 | 4.58 | 85 | 3.76 | > 100 | 3.5 | > 100 | 4.01 | > 100 | 6.07 | > 100 | 3.34 | > 100 | 4.71 | > 100 | 2.63 | > 100 | 3.42 | > 100 |
| COc1ccc2c(c1)sc1nc(-c3ccccc3)c(-c3ccsc3)n12 | 6.03 | > 100 | > 100 | > 100 | > 100 | > 100 | 4.18 | > 100 | 6.9 | > 100 | 4.9 | > 100 | 4 | > 100 | 2.64 | > 100 | 0.878 | > 100 | 12.1 | > 100 |
| COc1cc(/C=C/c2cc(C(F)(F)F)[nH]c(=O)n2)ccc1OCc1ccccc1F | 13 | 29.4 | 32 | > 100 | 7.51 | 31.3 | 7.12 | 19.6 | 11.5 | 30.1 | 9.27 | 24.7 | 10.5 | 31.9 | 12.5 | 26.1 | 7.55 | 98.8 | 7.04 | 32.6 |
| O=c1oc2ccccc2c(O)c1/C=N\c1nc(-c2ccccc2)cs1 |  | 20.4 |  | 89.7 |  | 23 |  | 22 |  | 62.4 |  | 31.1 |  | 46.9 |  | 16.2 |  | > 100 |  | 23.1 |
| CN1CCN(Cc2ccc(NC(=O)c3cncc(C#Cc4cnc(N)c5ccc(F)cc45)c3)cc2C(F)(F)F)CC1 | 1.15 | 4.51 | 1.17 | 12.2 | 4.08 | 8.63 | 1 | 5.04 | 4.39 | 8.96 | 2.52 | 7.11 | 2.4 | 7.86 | 0.974 | 4.4 | 0.0128 | 0.683 | 1.2 | 4.89 |
| CCOC(=O)[C@@H](C)C[C@H](Cc1ccccc1)NC(=O)c1csc([C@@H](C[C@H](C(C)C)N(C)C(=O)[C@@H](NC(=O)[C@H]2C[C@H](O[Si](C)(C)C(C)(C)C)CCN2C)C(C)C)OC(C)=O)n1 | 0.44 | > 8.33 | 0.217 | 1.35 | 0.789 | > 8.33 | 0.246 | 1.63 | 0.299 | > 8.33 | 0.491 | > 8.33 | 0.333 | > 8.33 | 0.198 | 1.03 | 0.17 | > 5.06 | 0.389 | 6.42 |
| COc1cc2c(cc1C)NC(=O)/C2=C\c1cc(OC)c(OC)c(OC)c1 | > 100 | > 100 | 58.3 | > 100 | 91.2 | > 100 | 33 | > 100 | 91.9 | > 100 | > 100 | > 100 | 29.7 | > 100 | > 100 | > 100 | 23.2 | 70.1 | > 100 | > 100 |
| O=C(Oc1ccc(O)c2c(=O)n3c(cc12)[nH]c1ccccc13)c1ccccc1 | 2.19 | 10.1 | 41.1 | > 100 | 16.6 | 42.2 | 11.3 | 23.5 | 37.7 | > 100 | 24.9 | 76.4 | 16 | 37.7 | 17.9 | 37 | 24.4 | 64 | 12.6 | 54 |
| O=c1cc(-c2ccccc2)[nH]c2cccc(S)c12 |  |  |  | > 100 |  | > 100 |  | > 100 |  | > 100 |  | > 100 |  | > 100 |  | > 100 |  | > 100 |  | > 100 |
| O=C(Nc1ccccc1C(F)(F)F)c1cccc(NC2=C(Cl)C(=O)N(Cc3ccccc3)C2=O)c1 | 19.8 | 97.8 | 8.27 | 28.5 | 11.2 | 70.1 | 14.9 | > 55.1 | 34 | > 100 | > 90.2 | > 100 | 19.2 | 62.5 | 23 | > 76.8 | 3.55 | > 100 | 7.49 | > 57.4 |
| CC(=O)CC1CCC(=O)CCC(=O)OC(CC(C)=O)CCC(=O)CCC(=O)O1 (configuration not stated) |  |  |  | > 100 |  | > 100 |  | > 100 |  | > 100 |  | > 100 |  | > 100 |  | > 100 |  | > 100 |  | > 100 |
| COc1cc(OC2OC(C)C(O)C(O)C2O)cc2oc(-c3ccc(O)cc3)c(CC=C(C)C)c(=O)c12 (configuration not stated) | 16.2 | 64.6 | 24 | > 100 | 29.6 | 68.4 | 8.15 | 20.8 | 15.3 | 39.2 | 23.4 | 59.6 | 18.6 | 47.4 | 19.2 | 39.8 | 7.91 | 27.9 | 12.3 | 45.3 |
| NC(=O)c1c[se]c(C2OC(CO)C(O)C2O)n1 (configuration not stated) |  | > 100 |  | > 100 |  | > 100 |  | 55 |  | > 100 |  | > 100 |  | > 100 |  | > 100 |  | > 100 |  | > 100 |
| O=C(O)C1CCc2ccc3ccccc3c2C1c1cccc2ccccc12 (configuration not stated) |  | 40.5 |  | > 100 |  | 59.4 |  | 28.9 |  | 34.2 |  | 39.5 |  |  |  | 38.9 |  | > 100 |  | 59.3 |

Reference: PubChem BioAssay (NCI)
